Peptide text beside a SMILES is read from it.

The test system of test [1] is virulent staphylococcal strains. The conditions noted are these: relative efficacy; cited from earlier work. The source says: This study is the first evaluation of the intracellular anti-staphylococcal properties of the NZ2114 derivative MP1102 using both in vitro and in vivo methods. […] As a corresponding in vivo mouse model, RAW 264.7 macrophages were chosen to evaluate in vitro intracellular activity in this study.

The test system of another test is IL-1β. The test is described as follows: Cytokine ELISA in S. aureus-infected RAW 264.7 cells. In kind it is cell-based, mouse. The conditions noted are these: 25 μg/ml, 24 h after infection with MRSA ATCC43300; range over treatments. Here is the method: (§1) To investigate the effects of MP1102 and NZ2114 on cytokine levels in cells infected with S. aureus, RAW264.7 cells (2.5 × 10^5 cells/ml) seeded into 12-well plates were incubated with MRSA ATCC43300 (MOI = 100:1) for 30 min followed by treatment with 50 μg/ml lysostaphin for 1 h to remove non-phagocytosed bacteria. The cells were then treated with 25 μg/ml MP1102, NZ2114 and vancomycin for 12 h and 24 h. Cell-free culture supernatants were collected and the concentrations of cytokines (TNF-α, IL-1β and IL-10) were determined by Jiaxuan Biotech. Co. Ltd. (Beijing, China) using an ELISA kit[58],[59].

A further test deals with IL-10. The description is as above. The conditions noted are these: 25 μg/ml, 24 h after treatment. Format: cell-based, mouse. Here is the method:
as §1

The subject of the next test is MSSA ATCC25923. Briefly: Mouse peritonitis model. Format: in vivo. The conditions noted are these: 20 mg/kg and 10 mg/kg dose, data not shown. Here is the method:
The mice were infected by peritoneal injection with different S. aureus strains, including MSSA ATCC25923 (5 × 10^8 CFU), MRSA ATCC43300 (5 × 10^8 CFU) and high virulent CVCC546 (5 × 10^7 CFU), and treated with a single dose of drugs ([…], 20, 30 and 40 mg/kg for ATCC43300 and CVCC546) at 10 min after infection. Twenty-four hours after treatment, the mice were killed and peritoneal fluids were obtained by washing with 5 ml ice-cold PBS. The total number of bacteria in the fluids was determined before any further procedures and then divided into two equal fractions of 1.5 ml each for the following purposes: i) for extracellular bacteria quantification, one fraction was centrifuged for 10 min at 4 °C (300 g) and the supernatant CFU count was quantified and ii) for intracellular bacteria quantification, the other fraction was centrifuged for 5 min at 4 °C (1,000 rpm). The cells were collected and treated with 100 μg/ml gentamicin (MSSA ATCC25923) or 50 μg/ml lysostaphin (MRSA ATCC43300 and high virulent CVCC546) for 1 h at 37 °C to kill extracellular bacteria. The cells were washed twice with ice-cold PBS to remove any anti-extracellular bacterial drug. Subsequently, the cells were lysed and counted as described above for the in vitro experiment method[14],[54].

As to `CC[C@H]1OC(=O)[C@H](C)[C@@H](O[C@H]2C[C@@](C)(OC)[C@@H](O)[C@H](C)O2)[C@H](C)[C@@H](O[C@@H]2O[C@H](C)C[C@H](N(C)C)[C@H]2O)[C@](C)(O)C[C@@H](C)CN(C)[C@H](C)[C@@H](O)[C@]1(C)O` [azithromycin], the Emax in test [1] is −0.5 log CFU.

`CC[C@H](C)[C@@H]1NC(=O)[C@H](CO)NC(=O)[C@H](CCCCN)NC(=O)[C@@H]2CSSC[C@@H](C(=O)N[C@@H](Cc3ccc(O)cc3)C(=O)O)NC(=O)[C@H](CCCCN)NC(=O)[C@@H]3CSSC[C@H](NC(=O)[C@H](CCCCN)NC(=O)[C@H](C(C)C)NC(=O)[C@H](CC(=O)O)NC(=O)[C@H](CC(=O)O)NC(=O)[C@H](CCC(=O)O)NC(=O)[C@H](CCC(=O)O)NC(=O)[C@H](Cc4c[nH]c5ccccc45)NC(=O)[C@@H]4CCCN4C(=O)CNC(=O)[C@H](CC(N)=O)NC(=O)[C@@H](NC(=O)CNC(=O)[C@H](Cc4ccccc4)NC(=O)CN)CSSC[C@H](NC(=O)[C@H](Cc4ccc(O)cc4)NC(=O)CNC(=O)CNC(=O)[C@H](CCCCN)NC(=O)[C@H](Cc4ccc(O)cc4)NC(=O)CNC(=O)[C@H](CCCCN)NC1=O)C(=O)N[C@@H](C)C(=O)N[C@@H](CCCCN)C(=O)NCC(=O)NCC(=O)N[C@@H](Cc1ccccc1)C(=O)N[C@@H](C(C)C)C(=O)N3)C(=O)N[C@@H](Cc1c[nH]cn1)C(=O)N[C@@H](CC(N)=O)C(=O)N[C@@H](Cc1c[nH]cn1)C(=O)N2` [MP1102] (HELM PEPTIDE1{G.F.G.C.N.G.P.W.E.E.D.D.V.K.C.H.N.H.C.K.S.I.K.G.Y.K.G.G.Y.C.A.K.G.G.F.V.C.K.C.Y}$PEPTIDE1,PEPTIDE1,4:R3-30:R3|PEPTIDE1,PEPTIDE1,15:R3-37:R3|PEPTIDE1,PEPTIDE1,19:R3-39:R3$$$V2.0; N-terminus and C-terminus assumed; bridges inferred): the “suppressed production of IL-1β” value in the test on IL-1β was in the range of 18.7 to 49.5 pg/mL. For the same compound, in the test with IL-10, the “IL-10 level change, in contrast to the decrease with NZ2114 and vancomycin” value turned out to be 4.8 pg/mL. Besides, the “colonies on the plates” value in the test with MSSA ATCC25923 is recorded as “no colonies were observed”.

Take `Cc1onc(-c2ccccc2)c1C(=O)N[C@@H]1C(=O)N2[C@@H]1SC(C)(C)[C@@H]2C(=O)O` [oxacillin]: in test [1], the Emax is given as −0.68 log CFU.

As for `C[C@@H](O)[C@H]1C(=O)N2C(C(=O)O)=C(SCCN=CN)C[C@H]12` [imipenem], in test [1], the Emax was −0.9 log CFU.
